This test relates to isomerase (recovery of 11-cis-retinal after bleaching). As to the kind of experiment: In vivo murine isomerase assay (Table 3). As to conditions: Mus musculus, po, mice.

Description: The capability of compounds described herein to inhibit isomerase was determined by an in vivo murine isomerase assay. […] The recovery of 11-cis-retinal after bleaching can be used to estimate the activity of isomerase in vivo. Delayed recovery, as represented by lower 11-cis-retinal oxime levels, indicates inhibition of isomerization reaction.
Mice were gavaged with the test compound. […] The mice were allowed to recover 2 hours in the dark. The animals were then sacrificed by carbon dioxide inhalation. Retinoids were extracted from the eye and the regeneration of 11-cis-retinal was assessed at various time intervals.
After the mice were sacrificed, the eyes were immediately removed and placed in liquid nitrogen for storage.
The eyes were placed in 500 μL of bis-tris propane buffer (10 mM, pH˜7.3) and 20 μL of 0.8M hydroxile amine (pH˜7.3). The eyes were cut up into small pieces with small iris scissors and then thoroughly homogenized at 30000 rpm with a mechanical homogenizer (Polytron PT 1300 D) in the tube until no visible tissue remained. 500 μL of methanol and 500 μL of heptane were added to each tube. The tubes were attached to a vortexer so that the contents were mixed thoroughly for 15 minutes in room temperature. The organic phase was separated from the aqueous phase by centrifugation for 10 min at 13K rpm, 4° C. 240 μL of the solution from the top layer (organic phase) was removed and transferred to clean 300 μl glass inserts in HPLC vials using glass pipette and the vials were crimped shut tightly.
The samples were analyzed on an Agilent 1100 HPLC system with normal phase column: SILICA (Beckman Coutlier, dp 5 μm, 4.6 mM×250 mM). […] Loading volume for each sample was 100 μl; detection wavelength was 360 nm. The area under the curve for 11-cis retinal oxime was calculated by Agilent Chemstation software and was recorded manually. Data processing was performed using Prizm software.
Positive control mice (no compound administered) were sacrificed fully dark-adapted and the eye retinoids analyzed. Light (bleached) control mice (no compound administered) were sacrificed and retinoids isolated and analyzed immediately after light treatment.
A time course study was performed to determine the isomerase inhibitory activity of the test compound. […] The animals were then “photo-bleached” (5000 Lux white light for 10 minutes) at 2, 4, 8, 16 and 24 hours after dosing, and returned to darkness to allow recovery of the 11-cis-retinal content of the eyes. Mice were sacrificed 2 hours after bleaching, eyes were enucleated, and retinoid content is analyzed by HPLC.
Recovery control mice (vehicle-only treated) were light-treated and left to recover for 2 hours in the dark before sacrifice and analysis. Light control mice (vehicle only treated) were sacrificed for analysis immediately after photo-bleaching.
An in vivo dose response isomerase inhibition study was performed with test compound. […] Recovery and retinoid analysis were performed as described above. Dark control mice were vehicle-only treated, sacrificed fully dark adapted without light treatment, and analyzed. Recovery control mice and light control mice were included in the study as per the initial phase.

The term inhibition denotes the relative decrease from the control value, in per cent. As to `NCC[C@@H](O)c1cccc(OCc2ccncc2)c1` [Example 4, (R)-3-amino-1-(3-(pyridin-4-ylmethoxy)phenyl)propan-1-ol], the inhibition at 1 mg/kg (4 h) was -8.7%.
For the compound `NCC[C@@H](O)c1cccc(OCC2CCS(=O)(=O)CC2)c1` [Example 9, (R)-4-((3-(3-Amino-1-hydroxypropyl)phenoxy)methyl)tetrahydro-2H-thiopyran 1,1-dioxide], for the setting “4 h”, the inhibition at 1 mg/kg is -8.2%.
Consider `NCC[C@@H](O)c1cccc(OCC2CCCOC2)c1` (mixture of isomers) [Example 3, (1R)-3-Amino-1-(3-((tetrahydro-2H-pyran-3-yl)methoxy)phenyl)propan-1-ol], for which, under “2 h”, the inhibition at 0.01 mg/kg turned out to be 1.2%, the inhibition at 0.03 mg/kg is 2.7%, the inhibition at 0.1 mg/kg was found to be 4.2% and the inhibition at 0.3 mg/kg was found to be 75.2%. Further, where the note is “2 h”, the inhibition at 1 mg/kg turned out to be 98.7% and the inhibition at 3 mg/kg is 102%. Also, where the note is “4 h”, the inhibition at 0.3 mg/kg is 59.7% and the inhibition at 1 mg/kg came to 94.2%. For the same compound, the inhibition at 0.3 mg/kg (8 h) amounted to 14.8%. Besides, the inhibition at 0.3 mg/kg (16 h) was determined as 1.6%. Also, the inhibition at 0.3 mg/kg (24 h) was 4.1%.
Regarding `NCCC(O)c1cccc(OCC2CCOCC2)c1` (centres unmarked) [Example 2, 3-Amino-1-(3-((tetrahydro-2H-pyran-4-yl)methoxy)phenyl)propan-1-ol], the inhibition at 1 mg/kg (4 h) is 89.9%.
With `NCC[C@@H](O)c1cccc(OCC2CCCSC2)c1` (mixture of isomers) [Example 7, (1R)-3-Amino-1-(3-((tetrahydro-2H-thiopyran-3-yl)methoxy)phenyl)propan-1-ol], the inhibition at 1 mg/kg reads like this: (2 h) 60.5%; (4 h) 68%; (8 h) 40.3%.
For the compound `NC/C=C/c1cccc(OCC2CCOCC2)c1` [Example 31, (E)-3-(3-((Tetrahydro-2H-pyran-4-yl)methoxy)phenyl)prop-2-en-1-amine], the inhibition at 1 mg/kg (2 h) came out at 11.3%.
Take `NCC[C@@H](O)c1cccc(OCC2COc3ccccc3C2)c1` (mixture of isomers) [Example 19, (1R)-3-Amino-1-(3-(chroman-3-ylmethoxy)phenyl)propan-1-ol]: the inhibition at 0.3 mg/kg runs as follows: (2 h) 49.4%; (4 h) 40%; (8 h) 15.5%. The inhibition at 1 mg/kg (4 h) was found to be 91.4%.
Turning to `NCC[C@@H](O)c1cccc(OCc2ccsc2)c1` [Example 29, (R)-3-Amino-1-(3-(thiophen-3-ylmethoxy)phenyl)propan-1-ol], the inhibition at 1 mg/kg (4 h) was determined as 27.4%.
The same measure, in the same setting: the result for `NCC[C@@H](O)c1cccc(NCC2CCCCC2)c1` [reference compound] reads 96%; that for `NCC[C@@H](O)c1cccc(OCC2CCSCC2)c1` [Example 8, (R)-3-Amino-1-(3-((tetrahydro-2H-thiopyran-4-yl)methoxy)phenyl)propan-1-ol], 33.2%.
Still for that read-out and setting: the figure for `NCC[C@@H](O)c1cccc(OCC2CCCC(=O)N2)c1` (some centres unmarked) [Example 27] is 9%.
In the case of `NCC[C@@H](O)c1cccc(OCC2CCCO2)c1` (mixture of isomers) [Example 14, (1R)-3-Amino-1-(3-((tetrahydrofuran-2-yl)methoxy)phenyl)propan-1-ol], the inhibition at 1 mg/kg runs as follows: (2 h) 79.2%; (4 h) 59.8%; (8 h) 0.8%.
For the compound `COC(=O)N1CCC(COc2cccc([C@H](O)CCN)c2)CC1` [Example 17, (R)-Methyl 4-((3-(3-amino-1-hydroxypropyl)phenoxy)methyl)piperidine-1-carboxylate], where the note is “2 h”, the inhibition at 0.01 mg/kg amounted to 0%, the inhibition at 0.03 mg/kg was -2%, the inhibition at 0.1 mg/kg is 9% and the inhibition at 0.3 mg/kg came out at 8%. Under “2 h”, the inhibition at 1 mg/kg turned out to be 93% and the inhibition at 3 mg/kg was determined as 100%. In addition, the inhibition at 1 mg/kg (4 h) was 88%. Also, the inhibition at 1 mg/kg (8 h) is 25%. The inhibition at 1 mg/kg (16 h) was -1%. In addition, the inhibition at 1 mg/kg (24 h) was -8%.
For the compound `NCC[C@@H](O)c1cccc(NCC2CCOCC2)c1` [Example 23, (R)-3-Amino-1-(3-(((tetrahydro-2H-pyran-4-yl)methyl)amino)phenyl)propan-1-ol], the inhibition at 1 mg/kg is 4.4% (2 h), -1.4% (4 h) and 1.5% (8 h).
On to `NCC[C@@H](O)c1cccc(OCC2CCCS(=O)(=O)C2)c1` (mixture of isomers) [Example 10, 3-((3-((R)-3-Amino-1-hydroxypropyl)phenoxy)methyl)tetrahydro-2H-thiopyran 1,1-dioxide], for which, where the note is “4 h”, the inhibition at 1 mg/kg is -7.6%.
As to `CNCC[C@@H](O)c1cccc(OCC2CCOCC2)c1` [Example 33, (R)-3-(Methylamino)-1-(3-((tetrahydro-2H-pyran-4-yl)methoxy)phenyl)propan-1-ol], the inhibition at 1 mg/kg by setting is: (2 h) 65.2%; (4 h) 54.5%; (8 h) 10.9%; (16 h) -0.8%; (24 h) 1.8%.
As for `NCC[C@@H](O)c1cccc(OCc2cccs2)c1` [Example 28, (R)-3-Amino-1-(3-(thiophen-2-ylmethoxy)phenyl)propan-1-ol], the inhibition at 1 mg/kg (4 h) stood at 50.6%.
Still for that read-out and setting: the figure for `NCC[C@@H](O)c1cccc(OCc2cccnc2)c1` [Example 5, (R)-3-Amino-1-(3-(pyridin-3-ylmethoxy)phenyl)propan-1-ol] is 3.1%.
Regarding `NCCCc1cccc(OCC2CCOCC2)c1` [Example 32, 3-(3-((Tetrahydro-2H-pyran-4-yl)methoxy)phenyl)propan-1-amine], where the note is “2 h”, the inhibition at 1 mg/kg worked out at 14.2%.
With `Cc1cccc(COc2cccc([C@H](O)CCN)c2)n1` [Example 12, (R)-3-Amino-1-(3-((6-methylpyridin-2-yl)methoxy)phenyl)propan-1-ol], under “4 h”, the inhibition at 1 mg/kg turned out to be 11.2%.
As to `CC(=O)N1CCC(COc2cccc([C@H](O)CCN)c2)CC1` [Example 11, (R)-1-(4-((3-(3-Amino-1-hydroxypropyl)phenoxy)methyl)piperidin-1-yl)ethanone], the inhibition at 1 mg/kg (2 h) is -4.7%, the inhibition at 1 mg/kg (4 h) is 2.6% and the inhibition at 1 mg/kg (8 h) was -3.8%.
As for `NCC[C@@H](O)c1cccc(OCC2Cc3ccccc3O2)c1` (mixture of isomers) [Example 13, (1R)-3-Amino-1-(3-((2,3-dihydrobenzofuran-2-yl)methoxy)phenyl)propan-1-ol], the inhibition at 1 mg/kg (2 h) stood at 62.1%.

Values taken from US20160151369A1, “SUBSTITUTED 3-PHENYLPROPYLAMINE DERIVATIVES FOR THE TREATMENT OF OPHTHALMIC DISEASES AND DISORDERS” (ACUCELA INC., priority 2013, published 2016).
